Results taken from ChEMBL document CHEMBL5052856, “Inhibitors of apol1 and methods of using same” (2021).

How the values were obtained:
[1] = system: Trypanosoma brucei brucei; assay: Antitrypanosomal activity against Trypanosoma brucei brucei assessed as trypanosome lysis using recombinant APOL1 protein G1 variant and measured by Alamar blue based fluoresence assay; type: functional, organism-based
Apolipoprotein L1 = Apolipoprotein L1 (Homo sapiens, UniProt O14791); assay: Inhibition of APOL1 G1 variant in human HEK293-T-REx cells measured by Thallium assay; type: cell-based

Row | Compound | IC50 [1] [nM] | IC50 (Apolipoprotein L1) [nM]
1 | NC(=O)[C@@H](CO)NC(=O)[C@H]1C[C@H](c2c(-c3ccc(F)cc3)[nH]c3c(F)cc(F)cc32)C1 | < 250 | < 250
2 | O=C(NC1CNC[C@@H]1O)[C@H]1C[C@H](c2c(-c3ccc(F)cc3)[nH]c3c(F)cc(F)cc32)C1 (stereo partly drawn) | 250 | > 1000
3 | O=C([C@H]1C[C@H](c2c(-c3ccc(F)cc3)[nH]c3c(F)cc(F)cc32)C1)N1C[C@H]2C[C@@]2(CO)C1 | > 1000 | > 1000
4 | NC(=O)[C@H]1CCCN1C(=O)[C@H]1C[C@H](c2c(-c3ccc(F)cc3)[nH]c3c(F)cc(F)cc32)C1 | > 1000 | 0.25
5 | CC(C)CC(NC(=O)[C@H]1C[C@H](c2c(-c3ccc(F)cc3)[nH]c3c(F)cc(F)cc32)C1)C(N)=O (stereo partly drawn) | > 1000 | > 1000
6 | COCC1(CNC(=O)[C@H]2C[C@H](c3c(-c4ccc(F)cc4)[nH]c4c(F)cc(F)cc43)C2)CC1 | > 1000 | > 1000
7 | O=C([C@H]1C[C@H](c2c(-c3ccc(F)cc3)[nH]c3c(F)cc(F)cc32)C1)N1CCC[C@@H]1CO | < 250 | 0.25
8 | NCC(O)CNC(=O)[C@H]1C[C@H](c2c(-c3ccc(F)cc3)[nH]c3c(F)cc(F)cc32)C1 (stereo partly drawn) | 250 | 0.25
9 | CC(C)(O)C1CN(C(=O)[C@H]2C[C@H](c3c(-c4ccc(F)cc4)[nH]c4c(F)cc(F)cc43)C2)C1 | > 1000 | > 1000
10 | CC(NC(=O)[C@H]1C[C@H](c2c(-c3ccc(F)cc3)[nH]c3c(F)cc(F)cc32)C1)c1ccnn1C (stereo partly drawn) | > 1000 | > 1000
11 | O=C(OC1CN(C(=O)C2CC(c3c(-c4ccc(F)cc4)[nH]c4c(F)cc(F)cc34)C2)C1)C1CCOCC1 (trans isomer) | < 250 | 0.25
12 | O=C(NC1CC(O)C1)[C@H]1C[C@H](c2c(-c3ccc(F)cc3)[nH]c3c(F)cc(F)cc32)C1 (stereo partly drawn) | 250 | 0.25
13 | CN(CC1(CO)CC1)C(=O)[C@H]1C[C@H](c2c(-c3ccc(F)cc3)[nH]c3c(F)cc(F)cc32)C1 | > 1000 | > 1000
14 | O=C([C@H]1C[C@H](c2c(-c3ccc(F)cc3)[nH]c3c(F)cc(F)cc32)C1)N1CCOC(CO)C1 (stereo partly drawn) | > 1000 | > 1000
15 | O=C1CC(NC(=O)[C@H]2C[C@H](c3c(-c4ccc(F)cc4)[nH]c4c(F)cc(F)cc43)C2)CN1 (stereo partly drawn) | > 1000 | > 1000
16 | NC(=O)[C@H]1CCN(C(=O)[C@H]2C[C@H](c3c(-c4ccc(F)cc4)[nH]c4c(F)cc(F)cc43)C2)C1 | > 1000 | > 1000
17 | O=C1N[C@H](CO)C[C@@H]1NC(=O)[C@H]1C[C@H](c2c(-c3ccc(F)cc3)[nH]c3c(F)cc(F)cc32)C1 | > 1000 | > 1000
18 | NC(=O)CNCC1CC(c2c(-c3ccc(F)cc3)[nH]c3c(F)cc(F)cc23)C1 (stereo not drawn) | < 250 | < 250
19 | CCN(C(=O)[C@H]1C[C@H](c2c(-c3ccc(F)cc3)[nH]c3c(F)cc(F)cc32)C1)C(C)CO (stereo partly drawn) | 250 | > 1000
20 | O=C1NCC[C@H]1NC(=O)[C@H]1C[C@H](c2c(-c3ccc(F)cc3)[nH]c3c(F)cc(F)cc32)C1 | < 250 | 0.25
21 | O=C(NC1(CCO)CC1)[C@H]1C[C@H](c2c(-c3ccc(F)cc3)[nH]c3c(F)cc(F)cc32)C1 | 250 | 0.25
22 | O=C(NC1(CO)CC1)[C@H]1C[C@H](c2c(-c3ccc(F)cc3)[nH]c3c(F)cc(F)cc32)C1 | < 250 | 0.25

Row | Compound | IC50 [1] [nM] | IC50 (Apolipoprotein L1) [nM]
23 | C[C@H](CO)N(C)C(=O)[C@H]1C[C@H](c2c(-c3ccc(F)cc3)[nH]c3c(F)cc(F)cc32)C1 (mixture of isomers) | < 250 | 0.25
24 | O=C(NC(CO)C1CC1)[C@H]1C[C@H](c2c(-c3ccc(F)cc3)[nH]c3c(F)cc(F)cc32)C1 (stereo partly drawn) | 250 | 0.25
25 | CN(C(=O)[C@H]1C[C@H](c2c(-c3ccc(F)cc3)[nH]c3c(F)cc(F)cc32)C1)C1(CO)CC1 | 250 | 0.25
26 | Cn1cnc(CNC(=O)[C@H]2C[C@H](c3c(-c4ccc(F)cc4)[nH]c4c(F)cc(F)cc43)C2)c1 | < 250 | < 250
27 | O=C([C@H]1C[C@H](c2c(-c3ccc(F)cc3)[nH]c3c(F)cc(F)cc32)C1)N1CCCC[C@@H]1CCO | > 1000 | > 1000
28 | CCN(CCO)C(=O)[C@H]1C[C@H](c2c(-c3ccc(F)cc3)[nH]c3c(F)cc(F)cc32)C1 | 250 | 0.25
29 | CC(NC(=O)[C@H]1C[C@H](c2c(-c3ccc(F)cc3)[nH]c3c(F)cc(F)cc32)C1)c1ccn(C)n1 (stereo partly drawn) | < 250 | 0.25
30 | C[C@@H](O)[C@H](CO)NC(=O)[C@H]1C[C@H](c2c(-c3ccc(F)cc3)[nH]c3c(F)cc(F)cc32)C1 | 250 | > 1000
31 | C[C@@H](NC(=O)[C@H]1C[C@H](c2c(-c3ccc(F)cc3)[nH]c3c(F)cc(F)cc32)C1)C(N)=O | > 1000 | 0.25
32 | O=C(NCC1(O)CCCC1)[C@H]1C[C@H](c2c(-c3ccc(F)cc3)[nH]c3c(F)cc(F)cc32)C1 | > 1000 | > 1000
33 | CN1CCN(C(=O)CNC(=O)[C@H]2C[C@H](c3c(-c4ccc(F)cc4)[nH]c4c(F)cc(F)cc43)C2)CC1 | > 1000 | > 1000
34 | O=C(N[C@@H]1CC[C@H](O)C1)[C@H]1C[C@H](c2c(-c3ccc(F)cc3)[nH]c3c(F)cc(F)cc32)C1 | > 1000 | > 1000
35 | CC1(CO)CCN1C(=O)[C@H]1C[C@H](c2c(-c3ccc(F)cc3)[nH]c3c(F)cc(F)cc32)C1 (stereo partly drawn) | < 250 | 0.25
36 | O=C([C@H]1C[C@H](c2c(-c3ccc(F)cc3)[nH]c3c(F)cc(F)cc32)C1)N1CCCCC1CCO (stereo partly drawn) | > 1000 | > 1000
37 | O=C([C@H]1C[C@H](c2c(-c3ccc(F)cc3)[nH]c3c(F)cc(F)cc32)C1)N1CCCC(CCO)C1 (stereo partly drawn) | > 1000 | > 1000
38 | O=C(NCCO)[C@H]1C[C@H](c2c(-c3ccc(F)cc3)[nH]c3c(F)cc(F)cc32)C1 | < 250 | < 250
39 | O=C(N[C@H]1CCC[C@@H]1O)[C@H]1C[C@H](c2c(-c3ccc(F)cc3)[nH]c3c(F)cc(F)cc32)C1 | 250 | 0.25
40 | CC(=O)NC1CCCN(C(=O)[C@H]2C[C@H](c3c(-c4ccc(F)cc4)[nH]c4c(F)cc(F)cc43)C2)C1 (stereo partly drawn) | > 1000 | > 1000
41 | Cn1ccc(CNC(=O)[C@H]2C[C@H](c3c(-c4ccc(F)cc4)[nH]c4c(F)cc(F)cc43)C2)n1 | < 250 | 0.25
42 | Cc1noc(CNC(=O)[C@H]2C[C@H](c3c(-c4ccc(F)cc4)[nH]c4c(F)cc(F)cc43)C2)n1 | < 250 | < 250
43 | O=C([C@H]1C[C@H](c2c(-c3ccc(F)cc3)[nH]c3c(F)cc(F)cc32)C1)N1CCC(CO)(CO)CC1 | > 1000 | > 1000
44 | COC[C@@H]1CCN1C(=O)[C@H]1C[C@H](c2c(-c3ccc(F)cc3)[nH]c3c(F)cc(F)cc32)C1 | < 250 | > 1000

Row | Compound | IC50 [1] [nM] | IC50 (Apolipoprotein L1) [nM]
45 | O=C([C@H]1C[C@H](c2c(-c3ccc(F)cc3)[nH]c3c(F)cc(F)cc32)C1)N1CC(OCC2CCCO2)C1 (stereo partly drawn) | > 1000 | > 1000
46 | O=C([C@H]1C[C@H](c2c(-c3ccc(F)cc3)[nH]c3c(F)cc(F)cc32)C1)N1CCCC(CO)C1 (stereo partly drawn) | > 1000 | > 1000
47 | CC(C)N1CCN(C(=O)[C@H]2C[C@H](c3c(-c4ccc(F)cc4)[nH]c4c(F)cc(F)cc43)C2)CC1=O | > 1000 | > 1000
48 | O=C(NC[C@H](O)CO)[C@H]1C[C@H](c2c(-c3ccc(F)cc3)[nH]c3c(F)cc(F)cc32)C1 | 250 | > 1000
49 | Cc1nnc(CNC(=O)[C@H]2C[C@H](c3c(-c4ccc(F)cc4)[nH]c4c(F)cc(F)cc43)C2)o1 | < 250 | 0.25
50 | O=C([C@H]1C[C@H](c2c(-c3ccc(F)cc3)[nH]c3c(F)cc(F)cc32)C1)N1CCCC1CCO (stereo partly drawn) | 250 | > 1000
51 | O=C(NCC1CC(F)(F)C1)[C@H]1C[C@H](c2c(-c3ccc(F)cc3)[nH]c3c(F)cc(F)cc32)C1 | > 1000 | > 1000
52 | O=C([C@H]1C[C@H](c2c(-c3ccc(F)cc3)[nH]c3c(F)cc(F)cc32)C1)N1CC[C@H](CO)[C@H](O)C1 | > 1000 | > 1000
53 | CN(CC(C)(C)O)C(=O)[C@H]1C[C@H](c2c(-c3ccc(F)cc3)[nH]c3c(F)cc(F)cc32)C1 | > 1000 | > 1000
54 | CC(C)N(CCO)C(=O)[C@H]1C[C@H](c2c(-c3ccc(F)cc3)[nH]c3c(F)cc(F)cc32)C1 | 250 | > 1000
55 | O=C(NCC(F)(F)F)[C@H]1C[C@H](c2c(-c3ccc(F)cc3)[nH]c3c(F)cc(F)cc32)C1 | > 1000 | 0.25
56 | O=C(N[C@H]1CC[C@@H]1O)[C@H]1C[C@H](c2c(-c3ccc(F)cc3)[nH]c3c(F)cc(F)cc32)C1 | 250 | > 1000
57 | O=C([C@H]1C[C@H](c2c(-c3ccc(F)cc3)[nH]c3c(F)cc(F)cc32)C1)N1C2CCC(C2)C1CO (stereo partly drawn) | > 1000 | > 1000
58 | O=C([C@H]1C[C@H](c2c(-c3ccc(F)cc3)[nH]c3c(F)cc(F)cc32)C1)N1CCC[C@H](O)C1 (mixture of isomers) | 250 | > 1000
59 | O=C(NC[C@@H](O)CO)[C@H]1C[C@H](c2c(-c3ccc(F)cc3)[nH]c3c(F)cc(F)cc32)C1 | > 1000 | > 1000
60 | O=C1NCCC1NC(=O)[C@H]1C[C@H](c2c(-c3ccc(F)cc3)[nH]c3c(F)cc(F)cc32)C1 (stereo partly drawn) | < 250 | < 250
61 | CC1CC(NC(=O)[C@H]2C[C@H](c3c(-c4ccc(F)cc4)[nH]c4c(F)cc(F)cc43)C2)C(=O)O1 (stereo partly drawn) | > 1000 | > 1000
62 | C[C@@H](CO)NC(=O)[C@H]1C[C@H](c2c(-c3ccc(F)cc3)[nH]c3c(F)cc(F)cc32)C1 | < 250 | < 250
63 | Cc1ccn(CCNC(=O)[C@H]2C[C@H](c3c(-c4ccc(F)cc4)[nH]c4c(F)cc(F)cc43)C2)n1 | 250 | > 1000
64 | O=C(NC1(CO)CCC1)[C@H]1C[C@H](c2c(-c3ccc(F)cc3)[nH]c3c(F)cc(F)cc32)C1 | < 250 | < 250
